Laboratory results taken from patent publication US8802595B2, “Use of prolines for improving growth and/or yield” (Los Alamos National Security, LLC, priority 2005, dated 2014).

Legend:
Format in all cases: in vivo
oats [1] = assay: Mitigation by pyroglutamate of 2,4-D-induced stress in oats (Example 7); details: oat seedlings in greenhouse, 2,4-D at ¼ field strength, pyroglutamate 13.5 g/L, with surfactant/wetting agent
Protocol: A test was conducted to measure mitigation by pyroglutamate of 2,4-D-induced stress in a monocotyledonous crop plant, oats.
Growing oat plants were treated with a mixture of pyroglutamate (isomer ratio 85:15 of L:D) and 2,4-D and their growth monitored. Oat seedlings, growing vigorously in a greenhouse, were treated with a mixture of 2,4-D and pyroglutamate (13.5 g/L). The 2,4-D was included in the mixture at ¼ of the recommended field strength; a surfactant/wetting agent (Gly Surf P) was also used. The treatment solution was applied with a backpack R&D sprayer using 2 passes over the plants to assure that all plants received treatment solution. It was estimated that this simulated a ½ strength field dose. These plants were compared with plants treated with the herbicide and surfactant/wetting agent as well as with controls treated only with the surfactant/wetting agent (controls).

white clover = assay: Herbicidal killing rate on white clover (Example 8); details: recommended field strength application, 25 plants each treatment
Protocol: (§1) Two dicotyledenous plants, white clover and morning glory were treated with the manufacturer's recommended field strength application and the killing rate was measured. Growing morning glory and clover plants (25 each treatment) treated with either 2,4-D alone or a mixture of 2,4-D and pyroglutamate were killed with the same efficacy, 100%.

morning glory = assay: Herbicidal killing rate on morning glory (Example 8); details: recommended field strength application, 25 plants each treatment
Protocol: as §1

oats [2] = assay: Oat tillers with flag leaves emerged at day 28 post-treatment (Example 2)
Excerpt: The oats from example 1 were also monitored for their number of tillers with flag leaves emerged at day 28 post-treatment. This parameter relates to potential for grain yield. Table 2 contains the resultant tillers with flag leaves at 28 days for the same series of isomer mixtures.

[3] = system: Commercial field grown wheat; assay: Grain yield of field grown wheat sprayed at flag leaf stage (Example 5); details: wheat sprayed one time at flag leaf stage, harvested at maturity
Excerpt: Commercial field grown wheat was sprayed one time with the pyroglutamate composition (isomer ratio 85:15 of L:D) at the flag leaf stage using the same treatment solution as described in our other plant treatments. Grain was harvested at maturity; the treated plots yielded 0.65 T/hectare more (7% increase) grain (seed) than the untreated plots.

[4] = system: Commercial field grown table grapes; assay: Yield of field grown table grapes sprayed twice (Example 6); details: 25 gm per acre
Excerpt: Commercial field grown table grapes were at sprayed twice the first time at 6-12″ of new vine growth and the second spraying 2 months later. The pyroglutamate composition (isomer ratio 85:15 of L:D) was applied at a rate of 25 gm per acre.

O=C(O)COc1ccc(Cl)cc1Cl [2,4-D, 2,4-dichlorophenoxy acetic acid]
average plant fresh weight (oats [1]): 2.29 g | killing efficacy (white clover): 100% | killing efficacy (morning glory): 100%

O=C(O)[C@@H]1CCC(O)=N1 [Series 1, pyroglutamate]
Tillers with flag leaves (oats [2]; listed as 1): 20

O=C(O)[C@@H]1CCC(O)=N1 [Series 2, pyroglutamate, reference compound]
Tillers with flag leaves (oats [2]; listed as 2): 24

O=C(O)[C@@H]1CCC(O)=N1 [Series 3, pyroglutamate]
Tillers with flag leaves (oats [2]; listed as 3): 17

O=C(O)[C@@H]1CCC(O)=N1 [Series 4, pyroglutamate]
Tillers with flag leaves (oats [2]; listed as 4): 34

O=C(O)[C@@H]1CCC(O)=N1 [Series 5, pyroglutamate]
Tillers with flag leaves (oats [2]; listed as 5): 33

O=C(O)[C@@H]1CCC(O)=N1 [Series 6, pyroglutamate]
Tillers with flag leaves (oats [2]; listed as 6): 37

O=C(O)[C@@H]1CCC(O)=N1 [Series 7, pyroglutamate]
Tillers with flag leaves (oats [2]; listed as 7): 29

O=C(O)[C@@H]1CCC(O)=N1 [Series 8, pyroglutamate]
Tillers with flag leaves (oats [2]; listed as 8): 31

O=C(O)[C@@H]1CCC(O)=N1 [Series 9, pyroglutamate]
Tillers with flag leaves (oats [2]; listed as 9): 23

O=C(O)[C@@H]1CCC(O)=N1 [Series 10, pyroglutamate]
Tillers with flag leaves (oats [2]; listed as 10): 22

O=C(O)[C@@H]1CCC(O)=N1 [Series 11, pyroglutamate]
Tillers with flag leaves (oats [2]; listed as 11): 26

O=C(O)[C@@H]1CCC(O)=N1 [Series 12, pyroglutamate]
Tillers with flag leaves (oats [2]; listed as 12): 24

O=C(O)[C@@H]1CCC(O)=N1 [pyroglutamate composition (isomer ratio 85:15 of L:D), pyroglutamate]
grain (seed) yield more than untreated plots [3]: 0.65 T/hectare | increase in grain yield versus untreated plots [3]: 7% | greater yield of harvestable grapes than untreated plots [4]: 13.5% | yield of harvestable grapes [4]: 1045 standard boxes
